Reference: publication PMC10820527, “Synthesis, Characterization, and Investigation of Anti-Inflammatory and Cytotoxic Activities of Novel Thiourea Derivatives of Naproxen” (Pharmaceutics, 2023)

Legend:
[1] = target: T1, 5-LOX (Homo sapiens, UniProt P09917); test: Fluorometric 5-LOX inhibitor screening kit; format: biochemical; conditions: mean of two measurements with standard error, read-out: 5-LOX Percent of Inhibition
T1 construct: purchased Abcam
T1 sequence (P09917 1-674): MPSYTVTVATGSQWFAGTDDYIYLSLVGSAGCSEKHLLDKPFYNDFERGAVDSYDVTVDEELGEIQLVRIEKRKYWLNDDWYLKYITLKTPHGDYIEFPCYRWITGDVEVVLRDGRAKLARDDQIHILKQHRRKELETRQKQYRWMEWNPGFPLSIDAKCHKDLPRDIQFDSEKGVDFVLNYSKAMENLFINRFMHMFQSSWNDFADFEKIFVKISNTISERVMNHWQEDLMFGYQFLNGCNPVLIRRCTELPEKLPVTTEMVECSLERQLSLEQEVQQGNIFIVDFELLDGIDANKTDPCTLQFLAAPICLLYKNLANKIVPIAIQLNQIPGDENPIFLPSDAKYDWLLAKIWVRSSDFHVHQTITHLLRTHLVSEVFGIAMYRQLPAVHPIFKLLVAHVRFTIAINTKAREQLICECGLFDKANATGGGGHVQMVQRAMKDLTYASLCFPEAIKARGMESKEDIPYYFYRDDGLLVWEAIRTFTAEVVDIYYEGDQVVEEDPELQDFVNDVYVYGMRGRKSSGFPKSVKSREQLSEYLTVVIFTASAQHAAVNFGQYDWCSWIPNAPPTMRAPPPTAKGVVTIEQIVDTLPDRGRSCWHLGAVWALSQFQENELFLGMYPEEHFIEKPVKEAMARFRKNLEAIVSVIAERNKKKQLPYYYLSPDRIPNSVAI
Experimental: The COX-2 and 5-LOX inhibitory potential of the tested compounds was evaluated using a fluorometric COX-2 and 5-LOX inhibitor screening kit (Abcam, Cambridge, UK). These tests are based on determining the presence of prostaglandin G2 (a product of COX enzyme activity) or an intermediate generated by the enzyme 5-LOX, using fluorometric detection. The mentioned experiments were performed according to the manufacturer’s instructions.
For the determination of COX-2 inhibitory potential of tested compounds, stock solutions (5 mM in DMSO) were diluted with the same solvent (test solutions). The test solutions were further diluted with COX assay buffer by mixing 2 µL of the corresponding test solution and 8 µL of COX assay buffer. For the preparation of inhibitory control (IC), celecoxib (2 µL) and COX assay buffer (8 µL) were mixed. Solvent control (SC) was prepared by mixing DMSO (2 µL) and the COX assay buffer (8 µL), enzyme control (EC) was 10 µL of COX assay buffer, while the samples (S) were 10 µL of diluted test solutions. IC, SC, EC, and S were transferred into corresponding wells. For the determination of 5-LOX inhibitory potential of tested compounds, stock solutions of the same concentration (5 mM) were prepared in DMSO. These solutions were further diluted with the same solvent to obtain the test solutions, which were added into the appropriate wells (2 µL). EC, SC, and IC were prepared by adding 2 µL of the assay buffer, DMSO, and zileuton into corresponding wells, respectively.
The fluorescence of the samples was measured kinetically at 25 °C (COX-2: Ex/Em = 535/587 nm, during 10 min; 5-LOX: Ek/Em = 500/536 nm during 20 min) using a Synergi LX multi-mode microplate reader (BioTek, Shoreline, WA, USA).

[2] = system: HeLa; test: MTT cytotoxicity assay, HeLa; format: cell-based, human; conditions: for IC50: mean ± SD
Experimental: (§1) Three cancer cell lines (MDA-MB-231, HCT116 and HeLa; i.e., human breast cancer cells, human colorectal cancer cells, and human cervical cancer cells, respectively), and one non-malignant fibroblast MRC-5 cell line (control) were used in this study. The American Type Cell Collection (ATCC, Manassas, VA, USA) provided all examined cell lines. The cells were grown in a complete medium made up of high-glucose DMEM media supplemented with 10% fetal bovine serum and […] L-glutamine (both from Sigma-Aldrich, USA). The cells were cultured in 25 cc flasks (Thermo Fischer Scientific, Waltham, MA, USA) at 37 °C with 100% humidity in a 5% CO2 atmosphere.
(§2) The MTT test was used to assess the cytotoxicity of compounds 1–14 [44]. The cytotoxicity of naproxen was also investigated due to its clinical use and structural similarity. Throughout the exponential development period, cells were taken from culture flasks and counted, and 5 × 10^3 cells/well were planted into 96-well culture plates. Following that, the cell lines were treated with varying doses of the investigated chemicals (1–14), naproxen ([…]), and fresh complete media as a control. All evaluated cells were incubated for 24, 48, and 72 h at 37 °C in an environment containing 5% CO2 and 100% humidity. Following incubation, each well’s culture media was taken out, each well received an addition of MTT solution at a final concentration of 0.5 mg/mL, and the cells were left to incubate for an additional four hours. The MTT solution was then withdrawn carefully, and the formazan crystals were dissolved in DMSO. After shaking the plates for 10 min, absorbance at 595 nm was measured using a multiplate reader (Zenyth 3100, Anthos Labtec Instruments, Salzburg, Austria). All concentrations of the tested compounds were performed in three separate wells of the microtiter plates and in three separate experiments. The results were reported as a ratio to the control value, untreated cells. IC50 values were also determined using Microsoft Office Excel 2021. The percentage of viable cells was estimated by dividing the readout absorbance value in the wells containing treated cells by the average absorbance value measured in the wells containing untreated cells, and multiplying the result by 100 [44]. % of the viable cells = ((absorbance of treated cell-absorbance of blank)/(absorbance of untreated cell-absorbance of blank)) × 100(3)

[3] = system: HCT 116; test: MTT cytotoxicity assay, HCT 116; format: cell-based, human; conditions: for IC50: Homo sapiens, mean ± SD
Experimental: as §1, §2

[4] = system: HeLa cells; test: Cell cycle analysis (PI staining, flow cytometry); format: cell-based, human; conditions: 24 h, IC50 concentration, p < 0.05
Experimental: The next step in this study was to evaluate whether the rate of division of HeLa tumor cells slows down under the influence of tested compounds. To examine the potential effect of compounds 3 and 8 on the cell cycle of HeLa cells, the cell line was incubated and treated with previously calculated IC50 values. The control population of untreated cells was also harvested and washed in the above-mentioned manner. Furthermore, HeLa cells were harvested, washed with PBS, and fixed with 70% ethanol at +4 °C. Cells were agglomerated and finally resuspended in 1 mL PBS containing RNAse A (500 μg/mL). After 30 min of incubation, cells were stained with 5 μL PI (10 mg/mL PBS). After 15 min of incubation in the dark, the samples were examined using a Beckman Coulter FC500 flow cytometer.

COc1ccc2cc([C@H](C)C(=O)NC(=S)Nc3ccccc3C)ccc2c1 [Compound 10, (S)-2-(6-methoxynaphthalen-2-yl)-N-(o-tolylcarbamothioyl)propanamide]
inhibition at 10 µM [1]: 27.9 ± 0.57% | Cytotoxic effect against HeLa cells (in words) [2]: moderate cytotoxic effect | IC50 ([2]; Homo sapiens, HeLa, 24 h): > 200 µM | IC50 ([2]; Homo sapiens, HeLa, 48 h): 111 ± 8.3 µM | IC50 ([2]; Homo sapiens, HeLa, 72 h): 85.3 ± 9.1 µM | Cytotoxic effect against the HCT 116 cell line (in words) [3]: moderate cytotoxic effects | IC50 ([3]; HCT-116, 24 h): 120 ± 8.8 µM | IC50 ([3]; HCT-116, 48 h): 97.2 ± 6.8 µM | IC50 ([3]; HCT-116, 72 h): 33.3 ± 5.5 µM

COc1ccc2cc([C@H](C)C(=O)NC(=S)Nc3ccccc3)ccc2c1 [Compound 8, (S)-2-(6-methoxynaphthalen-2-yl)-N-(phenylcarbamothioyl)propanamide]
inhibition at 10 µM [1]: 34.6 ± 5.84% | Cytotoxic effect against HeLa cells (in words) [2]: strong cytotoxic effects | IC50 ([2]; 72 h): 9.1 ± 2.5 µM | IC50 ([2]; Homo sapiens, HeLa, 24 h): > 140 µM | IC50 ([2]; Homo sapiens, HeLa, 48 h): 97.6 ± 10.9 µM | IC50 ([2]; Homo sapiens, HeLa, 72 h): 9 ± 2 µM | IC50 ([3]; HCT-116, 24 h): > 200 µM | IC50 ([3]; HCT-116, 48 h): > 200 µM | IC50 ([3]; HCT-116, 72 h): 101 ± 15.5 µM | Effect on cell cycle of HeLa cells (in words) [4]: induced G0/G1 phase arrest

COc1ccc2cc([C@H](C)C(=O)NC(=S)Nc3ccccc3OC)ccc2c1 [Compound 11, (S)-2-(6-methoxynaphthalen-2-yl)-N-((2-methoxyphenyl)carbamothioyl)propanamide]
inhibition at 10 µM [1]: 31.2 ± 5.45% | IC50 ([2]; Homo sapiens, HeLa, 24 h): > 200 µM | IC50 ([2]; Homo sapiens, HeLa, 48 h): > 200 µM | IC50 ([2]; Homo sapiens, HeLa, 72 h): > 200 µM | IC50 ([3]; HCT-116, 24 h): > 200 µM | IC50 ([3]; HCT-116, 48 h): > 200 µM | IC50 ([3]; HCT-116, 72 h): > 200 µM

COc1ccc2cc([C@H](C)C(=O)NC(=S)Nc3ccccc3F)ccc2c1 [Compound 12, (S)-N-((2-fluorophenyl)carbamothioyl)-2-(6-methoxynaphthalen-2-yl)propanamide]
inhibition at 10 µM [1]: 29.7 ± 8.56% | Cytotoxic effect against HeLa cells (in words) [2]: moderate cytotoxic effect | IC50 ([2]; Homo sapiens, HeLa, 24 h): 135 ± 16.8 µM | IC50 ([2]; Homo sapiens, HeLa, 48 h): 103 ± 9.5 µM | IC50 ([2]; Homo sapiens, HeLa, 72 h): 72.8 ± 6.9 µM | Cytotoxic effect against the HCT 116 cell line (in words) [3]: moderate cytotoxic effects | IC50 ([3]; HCT-116, 24 h): > 200 µM | IC50 ([3]; HCT-116, 48 h): 159 ± 17.5 µM | IC50 ([3]; HCT-116, 72 h): 68.8 ± 9.5 µM

COC(=O)[C@H](Cc1c[nH]c2ccccc12)NC(=S)NC(=O)[C@@H](C)c1ccc2cc(OC)ccc2c1 [Compound 14, Methyl (((S)-2-(6-methoxynaphthalen-2-yl)propanoyl)carbamothioyl)tryptophanate]
inhibition at 10 µM [1]: 46.24 ± 0.4% | IC50 ([2]; Homo sapiens, HeLa, 24 h): > 200 µM | IC50 ([2]; Homo sapiens, HeLa, 48 h): 151 ± 14.2 µM | IC50 ([2]; Homo sapiens, HeLa, 72 h): 110 ± 11.5 µM | Cytotoxic effect against the HCT 116 cell line (in words) [3]: moderate cytotoxic effects | IC50 ([3]; HCT-116, 24 h): 150 ± 7.6 µM | IC50 ([3]; HCT-116, 48 h): 108 ± 12.7 µM | IC50 ([3]; HCT-116, 72 h): 47.1 ± 5.4 µM

COC(=O)[C@H](Cc1ccccc1)NC(=S)NC(=O)[C@@H](C)c1ccc2cc(OC)ccc2c1 [Compound 13, Methyl (((S)-2-(6-methoxynaphthalen-2-yl)propanoyl)carbamothioyl)phenylalaninate]
inhibition at 10 µM [1]: 19.8 ± 13.2% | IC50 ([2]; Homo sapiens, HeLa, 24 h): > 200 µM | IC50 ([2]; Homo sapiens, HeLa, 48 h): > 200 µM | IC50 ([2]; Homo sapiens, HeLa, 72 h): > 200 µM | IC50 ([3]; HCT-116, 24 h): > 200 µM | IC50 ([3]; HCT-116, 48 h): > 200 µM | IC50 ([3]; HCT-116, 72 h): 99.6 ± 4.9 µM

COc1ccc2cc([C@H](C)C(=O)NC(=S)Nc3ccc(C)cc3)ccc2c1 [Compound 9, (S)-2-(6-methoxynaphthalen-2-yl)-N-(p-tolylcarbamothioyl)propanamide]
inhibition at 10 µM [1]: 12.9 ± 5.47% | IC50 ([2]; Homo sapiens, HeLa, 24 h): > 200 µM | IC50 ([2]; Homo sapiens, HeLa, 48 h): > 200 µM | IC50 ([2]; Homo sapiens, HeLa, 72 h): 120 ± 8.7 µM | Cytotoxic effect against the HCT 116 cell line (in words) [3]: moderate cytotoxic effects | IC50 ([3]; HCT-116, 24 h): > 200 µM | IC50 ([3]; HCT-116, 48 h): 105 ± 14.8 µM | IC50 ([3]; HCT-116, 72 h): 52.9 ± 8.1 µM
